Measured values from PubChem BioAssay (NCI).
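Assay format: 96-well plates, 48-hour exposure. TGI is the concentration that stops growth completely.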

Columns and labels:
Test in all cases: NCI-60 cell line screen, 48 h
SF-295 CNS = system: SF-295 CNS
UO-31 renal = system: UO-31 renal
ACHN renal = system: ACHN renal
SK-OV-3 ovarian = system: SK-OV-3 ovarian
786-0 renal = system: 786-0 renal
SF-539 CNS = system: SF-539 CNS
NCI-H460 lung = system: NCI-H460 lung
NCI-H23 lung = system: NCI-H23 lung
DMS 114 small cell lung = system: DMS 114 small cell lung
MOLT-4 leukemia = system: MOLT-4 leukemia
COLO 205 colon = system: COLO 205 colon
SK-MEL-5 melanoma = system: SK-MEL-5 melanoma
LXFL 529 NSCLC = system: LXFL 529 NSCLC
HCT-116 colon = system: HCT-116 colon
KM12 colon = system: KM12 colon
SNB-75 CNS = system: SNB-75 CNS
DMS 273 small cell lung = system: DMS 273 small cell lung
SN12C renal = system: SN12C renal
OVCAR-3 ovarian = system: OVCAR-3 ovarian
KM20L2 colon = system: KM20L2 colon
CAKI-1 renal = system: CAKI-1 renal
HOP-62 NSCLC = system: HOP-62 NSCLC
HL-60(TB) leukemia = system: HL-60(TB) leukemia
CCRF-CEM leukemia = system: CCRF-CEM leukemia
RPMI-8226 leukemia = system: RPMI-8226 leukemia
M19-MEL melanoma = system: M19-MEL melanoma
HOP-18 NSCLC = system: HOP-18 NSCLC
UACC-62 melanoma = system: UACC-62 melanoma
DLD-1 colon = system: DLD-1 colon
RXF 393 renal = system: RXF 393 renal
A498 renal = system: A498 renal
K-562 leukemia = system: K-562 leukemia
SF-268 CNS = system: SF-268 CNS
SNB-78 CNS = system: SNB-78 CNS
MALME-3M melanoma = system: MALME-3M melanoma
SNB-19 CNS = system: SNB-19 CNS
OVCAR-8 ovarian = system: OVCAR-8 ovarian
A549 NSCLC = system: A549 NSCLC
HCT-15 colon = system: HCT-15 colon
HOP-92 NSCLC = system: HOP-92 NSCLC
NCI-H522 lung = system: NCI-H522 lung
NCI-H226 lung = system: NCI-H226 lung
EKVX NSCLC = system: EKVX NSCLC
SK-MEL-28 melanoma = system: SK-MEL-28 melanoma
U251 CNS = system: U251 CNS
OVCAR-5 ovarian = system: OVCAR-5 ovarian
SW-620 colon = system: SW-620 colon
UACC-257 melanoma = system: UACC-257 melanoma
IGROV1 ovarian = system: IGROV1 ovarian
RXF-631 renal = system: RXF-631 renal
LOX IMVI melanoma = system: LOX IMVI melanoma
OVCAR-4 ovarian = system: OVCAR-4 ovarian
HT29 colon = system: HT29 colon
HCC-2998 colon = system: HCC-2998 colon
M14 melanoma = system: M14 melanoma
SR leukemia = system: SR leukemia
TK-10 renal = system: TK-10 renal
XF 498 CNS = system: XF 498 CNS
SK-MEL-2 melanoma = system: SK-MEL-2 melanoma

With `NNC(=O)CC(=O)Nc1ccccc1F` the TGI (SF-295 CNS) was > 100 µM, the TGI (UO-31 renal) was > 100 µM and the TGI (ACHN renal) was > 100 µM. The TGI (SK-OV-3 ovarian) was > 100 µM, the TGI (786-0 renal) was > 100 µM and the TGI (SF-539 CNS) was > 100 µM. For the same compound, the TGI (NCI-H460 lung) was > 100 µM, the TGI (NCI-H23 lung) was > 100 µM and the TGI (DMS 114 small cell lung) was > 100 µM. The TGI (MOLT-4 leukemia) was > 100 µM, the TGI (COLO 205 colon) was > 100 µM and the TGI (SK-MEL-5 melanoma) was > 100 µM. The TGI (LXFL 529 NSCLC) was > 100 µM, the TGI (HCT-116 colon) was > 100 µM and the TGI (KM12 colon) was > 100 µM. For the same compound, the TGI (SNB-75 CNS) was > 100 µM, the TGI (DMS 273 small cell lung) was > 100 µM and the TGI (SN12C renal) was > 100 µM. The TGI (OVCAR-3 ovarian) was > 100 µM, the TGI (KM20L2 colon) was > 100 µM and the TGI (CAKI-1 renal) was > 100 µM. For the same compound, the TGI (HOP-62 NSCLC) was > 100 µM, the TGI (HL-60(TB) leukemia) was > 100 µM and the TGI (CCRF-CEM leukemia) was > 100 µM. For the same compound, the TGI (RPMI-8226 leukemia) was > 100 µM, the TGI (M19-MEL melanoma) was > 100 µM and the TGI (HOP-18 NSCLC) was > 100 µM. For the same compound, the TGI (UACC-62 melanoma) was > 100 µM, the TGI (DLD-1 colon) was > 100 µM and the TGI (RXF 393 renal) was > 100 µM. The TGI (A498 renal) was > 100 µM, the TGI (K-562 leukemia) was > 100 µM and the TGI (SF-268 CNS) was > 100 µM. The TGI (SNB-78 CNS) was > 100 µM, the TGI (MALME-3M melanoma) was > 100 µM and the TGI (SNB-19 CNS) was > 100 µM. For the same compound, the TGI (OVCAR-8 ovarian) was > 100 µM, the TGI (A549 NSCLC) was > 100 µM and the TGI (HCT-15 colon) was > 100 µM. The TGI (HOP-92 NSCLC) was > 100 µM, the TGI (NCI-H522 lung) was > 100 µM and the TGI (NCI-H226 lung) was > 100 µM. The TGI (EKVX NSCLC) was > 100 µM, the TGI (SK-MEL-28 melanoma) was > 100 µM and the TGI (U251 CNS) was > 100 µM. For the same compound, the TGI (OVCAR-5 ovarian) was > 100 µM, the TGI (SW-620 colon) was > 100 µM and the TGI (UACC-257 melanoma) was > 100 µM. For the same compound, the TGI (IGROV1 ovarian) was > 100 µM, the TGI (RXF-631 renal) was > 100 µM and the TGI (LOX IMVI melanoma) was > 100 µM. The TGI (OVCAR-4 ovarian) was > 100 µM, the TGI (HT29 colon) was > 100 µM and the TGI (HCC-2998 colon) was > 100 µM. The TGI (M14 melanoma) was > 100 µM.

With `COc1cc(/C=C(\NC(=O)c2ccccc2)c2nc3ccc([N+](=O)[O-])cc3[nH]2)cc(OC)c1OC` the TGI (SF-295 CNS) was > 100 µM, the TGI (UO-31 renal) was 89.5 µM and the TGI (SK-OV-3 ovarian) was > 100 µM. For the same compound, the TGI (NCI-H23 lung) was > 100 µM, the TGI (DMS 114 small cell lung) was > 100 µM and the TGI (MOLT-4 leukemia) was > 100 µM. For the same compound, the TGI (COLO 205 colon) was > 100 µM, the TGI (SK-MEL-5 melanoma) was > 100 µM and the TGI (LXFL 529 NSCLC) was > 100 µM. The TGI (KM12 colon) was > 100 µM, the TGI (SN12C renal) was > 100 µM and the TGI (OVCAR-3 ovarian) was > 100 µM. The TGI (KM20L2 colon) was > 100 µM, the TGI (CAKI-1 renal) was > 100 µM and the TGI (CCRF-CEM leukemia) was > 100 µM. The TGI (M19-MEL melanoma) was > 100 µM, the TGI (UACC-62 melanoma) was > 100 µM and the TGI (DLD-1 colon) was > 100 µM. The TGI (SR leukemia) was > 100 µM, the TGI (RXF 393 renal) was > 100 µM and the TGI (K-562 leukemia) was > 100 µM. The TGI (SNB-78 CNS) was > 100 µM, the TGI (MALME-3M melanoma) was > 100 µM and the TGI (SNB-19 CNS) was > 100 µM. For the same compound, the TGI (OVCAR-8 ovarian) was > 100 µM, the TGI (HCT-15 colon) was > 100 µM and the TGI (TK-10 renal) was > 100 µM. The TGI (HOP-92 NSCLC) was > 100 µM, the TGI (NCI-H522 lung) was > 100 µM and the TGI (XF 498 CNS) was > 100 µM. For the same compound, the TGI (SK-MEL-28 melanoma) was > 100 µM, the TGI (U251 CNS) was > 100 µM and the TGI (OVCAR-5 ovarian) was > 100 µM. The TGI (SW-620 colon) was > 100 µM, the TGI (IGROV1 ovarian) was > 100 µM and the TGI (OVCAR-4 ovarian) was > 100 µM. For the same compound, the TGI (HT29 colon) was > 100 µM, the TGI (SK-MEL-2 melanoma) was > 100 µM and the TGI (HCC-2998 colon) was > 100 µM. The TGI (M14 melanoma) was > 100 µM.
